Experiment [1] addresses T1, Poly [ADP-ribose] polymerase tankyrase-1 (Homo sapiens, UniProt O95271).
T1 sequence (O95271 whole entry): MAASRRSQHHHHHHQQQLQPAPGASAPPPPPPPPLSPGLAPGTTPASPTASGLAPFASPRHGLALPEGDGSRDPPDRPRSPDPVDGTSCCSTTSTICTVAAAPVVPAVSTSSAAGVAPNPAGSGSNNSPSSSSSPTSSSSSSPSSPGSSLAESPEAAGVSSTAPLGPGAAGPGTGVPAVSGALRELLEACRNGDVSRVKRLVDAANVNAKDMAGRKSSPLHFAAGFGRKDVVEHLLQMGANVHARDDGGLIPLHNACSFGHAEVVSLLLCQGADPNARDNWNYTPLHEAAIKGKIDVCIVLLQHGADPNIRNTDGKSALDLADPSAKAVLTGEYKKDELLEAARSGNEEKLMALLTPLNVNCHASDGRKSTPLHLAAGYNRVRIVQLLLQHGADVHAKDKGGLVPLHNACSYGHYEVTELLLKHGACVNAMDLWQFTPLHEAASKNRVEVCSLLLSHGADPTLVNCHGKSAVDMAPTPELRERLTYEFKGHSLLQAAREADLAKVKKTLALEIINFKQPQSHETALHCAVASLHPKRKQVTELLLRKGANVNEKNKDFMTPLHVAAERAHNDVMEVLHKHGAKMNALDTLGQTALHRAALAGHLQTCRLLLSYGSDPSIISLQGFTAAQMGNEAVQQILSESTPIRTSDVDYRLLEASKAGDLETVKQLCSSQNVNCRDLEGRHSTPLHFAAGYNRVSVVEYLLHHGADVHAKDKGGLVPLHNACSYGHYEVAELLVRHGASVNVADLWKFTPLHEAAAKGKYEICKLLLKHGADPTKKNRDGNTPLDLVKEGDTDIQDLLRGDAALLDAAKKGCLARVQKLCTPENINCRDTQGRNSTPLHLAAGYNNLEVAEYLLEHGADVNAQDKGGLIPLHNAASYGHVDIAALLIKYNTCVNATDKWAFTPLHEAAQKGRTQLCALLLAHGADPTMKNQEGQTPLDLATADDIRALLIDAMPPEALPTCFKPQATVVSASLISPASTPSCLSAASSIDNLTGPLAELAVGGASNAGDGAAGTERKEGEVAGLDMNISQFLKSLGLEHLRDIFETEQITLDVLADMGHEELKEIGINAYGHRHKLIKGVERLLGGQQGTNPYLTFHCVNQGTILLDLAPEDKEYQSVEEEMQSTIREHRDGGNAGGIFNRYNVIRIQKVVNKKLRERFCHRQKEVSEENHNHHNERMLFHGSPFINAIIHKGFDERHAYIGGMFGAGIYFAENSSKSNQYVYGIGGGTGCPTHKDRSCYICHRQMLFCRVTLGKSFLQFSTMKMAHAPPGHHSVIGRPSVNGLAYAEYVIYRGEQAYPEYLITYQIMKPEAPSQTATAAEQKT
Nature of the experiment: Inhibition of N-terminal His-tagged human ARTD5 (1030 to 1317 residues) expressed in Escherichia coli Rosetta2 (DE3) using TCEP as substrate after 18 hrs in presence of NAD+.

The target of experiment [2] is T2, Protein mono-ADP-ribosyltransferase PARP3 (Homo sapiens, UniProt Q9Y6F1).
T2 sequence (Q9Y6F1 whole entry): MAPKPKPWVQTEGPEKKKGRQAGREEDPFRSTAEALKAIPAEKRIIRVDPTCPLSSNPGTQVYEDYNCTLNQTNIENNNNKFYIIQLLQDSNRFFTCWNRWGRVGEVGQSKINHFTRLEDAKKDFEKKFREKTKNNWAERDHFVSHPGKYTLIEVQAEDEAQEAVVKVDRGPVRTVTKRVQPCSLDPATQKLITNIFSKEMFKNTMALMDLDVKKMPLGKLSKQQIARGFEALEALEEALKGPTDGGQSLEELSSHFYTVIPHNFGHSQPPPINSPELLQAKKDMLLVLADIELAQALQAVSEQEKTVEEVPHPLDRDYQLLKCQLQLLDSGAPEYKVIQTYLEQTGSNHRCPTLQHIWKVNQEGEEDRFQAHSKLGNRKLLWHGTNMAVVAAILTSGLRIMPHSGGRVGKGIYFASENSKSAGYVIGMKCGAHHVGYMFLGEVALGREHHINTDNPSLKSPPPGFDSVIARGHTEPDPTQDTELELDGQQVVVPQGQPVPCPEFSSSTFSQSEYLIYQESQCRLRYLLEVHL
Nature of the experiment: Inhibition of N-terminal His-tagged thioredoxin-fused human ARTD3 (1 to 533 residues) expressed in Escherichia coli Rosetta2 (DE3) using DNA as substrate after 3 hrs in presence of NAD+.

The target of experiment [3] is T3, Protein mono-ADP-ribosyltransferase PARP10 (Homo sapiens) (UniProt Q53GL7).
T3 sequence (whole entry): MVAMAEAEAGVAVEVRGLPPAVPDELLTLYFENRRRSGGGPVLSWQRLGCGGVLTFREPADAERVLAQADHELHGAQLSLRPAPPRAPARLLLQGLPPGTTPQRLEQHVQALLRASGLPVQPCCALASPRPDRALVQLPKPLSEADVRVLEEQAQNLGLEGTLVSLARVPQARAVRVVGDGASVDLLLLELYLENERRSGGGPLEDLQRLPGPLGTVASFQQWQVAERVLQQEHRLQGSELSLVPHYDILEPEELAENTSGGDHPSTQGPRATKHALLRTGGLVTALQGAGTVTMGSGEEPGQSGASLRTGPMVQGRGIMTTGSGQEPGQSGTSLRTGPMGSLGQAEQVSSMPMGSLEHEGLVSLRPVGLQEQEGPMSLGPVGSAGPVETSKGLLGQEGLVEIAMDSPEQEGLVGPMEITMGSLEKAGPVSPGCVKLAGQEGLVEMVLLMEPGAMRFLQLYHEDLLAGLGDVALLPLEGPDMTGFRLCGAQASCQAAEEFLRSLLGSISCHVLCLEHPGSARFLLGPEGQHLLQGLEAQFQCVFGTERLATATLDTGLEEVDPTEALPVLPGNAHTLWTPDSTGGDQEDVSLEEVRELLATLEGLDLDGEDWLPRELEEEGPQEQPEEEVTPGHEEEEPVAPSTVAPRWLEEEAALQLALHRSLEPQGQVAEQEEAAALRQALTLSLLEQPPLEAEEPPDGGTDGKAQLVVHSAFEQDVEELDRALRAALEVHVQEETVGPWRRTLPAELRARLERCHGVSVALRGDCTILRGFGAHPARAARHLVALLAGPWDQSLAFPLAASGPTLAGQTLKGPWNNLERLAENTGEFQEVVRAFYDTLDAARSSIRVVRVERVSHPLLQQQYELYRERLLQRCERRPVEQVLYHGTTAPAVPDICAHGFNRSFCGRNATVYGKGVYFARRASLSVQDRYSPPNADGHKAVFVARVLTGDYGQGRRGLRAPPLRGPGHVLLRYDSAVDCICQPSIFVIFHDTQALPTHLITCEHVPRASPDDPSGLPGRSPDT
Description: Stabilization of C-terminal His-tagged human ARTD10 (809 to 1017 residues) expressed in Escherichia coli Rosetta2 (DE3) assessed as change in melting temperature at 100 uM by SYPRO Orange-dye based differential scanning fluorimetric method

For experiment [4], the target named is Zinc finger CCCH-type antiviral protein 1 (Homo sapiens) (UniProt Q7Z2W4).
Zinc finger CCCH-type antiviral protein 1 (Homo sapiens), sequence (Q7Z2W4 whole entry): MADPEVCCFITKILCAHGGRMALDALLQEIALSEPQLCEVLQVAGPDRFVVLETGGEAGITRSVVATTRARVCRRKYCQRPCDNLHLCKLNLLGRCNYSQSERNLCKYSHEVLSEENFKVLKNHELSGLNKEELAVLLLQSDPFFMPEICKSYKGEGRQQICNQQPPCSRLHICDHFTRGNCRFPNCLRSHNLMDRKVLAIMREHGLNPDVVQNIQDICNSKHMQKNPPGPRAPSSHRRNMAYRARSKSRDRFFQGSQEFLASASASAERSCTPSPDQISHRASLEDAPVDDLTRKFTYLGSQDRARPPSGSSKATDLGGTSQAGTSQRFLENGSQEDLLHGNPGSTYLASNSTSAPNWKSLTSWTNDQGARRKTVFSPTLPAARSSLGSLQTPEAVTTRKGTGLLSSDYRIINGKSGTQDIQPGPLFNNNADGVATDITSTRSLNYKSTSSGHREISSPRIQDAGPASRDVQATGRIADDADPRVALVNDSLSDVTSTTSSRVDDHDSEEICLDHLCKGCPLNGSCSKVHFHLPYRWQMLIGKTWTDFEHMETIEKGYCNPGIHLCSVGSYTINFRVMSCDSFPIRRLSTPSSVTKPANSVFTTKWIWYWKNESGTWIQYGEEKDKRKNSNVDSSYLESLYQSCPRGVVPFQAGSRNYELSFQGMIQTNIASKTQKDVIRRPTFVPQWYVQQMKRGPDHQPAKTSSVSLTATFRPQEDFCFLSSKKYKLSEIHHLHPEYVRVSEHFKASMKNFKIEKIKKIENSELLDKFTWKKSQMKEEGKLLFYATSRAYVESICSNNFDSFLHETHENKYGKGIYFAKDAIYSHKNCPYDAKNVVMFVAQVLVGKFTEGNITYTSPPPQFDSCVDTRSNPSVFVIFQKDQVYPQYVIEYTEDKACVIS
Description: Stabilization of human ARTD13 expressed in Escherichia coli assessed as change in melting temperature at 100 uM by SYPRO Orange-dye based differential scanning fluorimetric method

A value given as a limit tells only on which side of the number the result lay.

Usually IC50 stands for the concentration needed to halve the response being measured. What is called ΔTm is the change in melting temperature against a reference sample.

On to `COc1ccc(C(N)=O)cc1`, for which the IC50 in experiment [1] and in experiment [2] was above 100 µM in each case. For the same compound, the ΔTm is 2.76 °C in experiment [3] and 0.44 °C in experiment [4].

For `NC(=O)c1ccc(OCc2ccccc2F)cc1`, the IC50 in experiment [1] and in experiment [2] was above 100 µM each time. In addition, the shift in melting temperature (ΔTm) is 4.2 °C in experiment [3] and 0.37 °C in experiment [4].

As to `NC(=O)c1ccc(Oc2ccc(C(=O)O)cc2)cc1`, the IC50 in experiment [1] and in experiment [2] was above 100 µM in each case. The ΔTm in experiment [3] was found to be 5.21 °C; in experiment [4], 0.72 °C.

On to `NC(=O)c1ccc(Oc2ccc(C=O)cc2)cc1`, for which the IC50 in experiment [1] is above 100 µM; in experiment [2], 86 µM. Further, the shift in melting temperature (ΔTm) in experiment [3] came out at 3.6 °C; in experiment [4] it was 0.49 °C.

Values taken from ChEMBL document CHEMBL4270552, “4-(Phenoxy) and 4-(benzyloxy)benzamides as potent and selective inhibitors of mono-ADP-ribosyltransferase PARP10/ARTD10” (Eur J Med Chem, 2018).
